The text below walks through data of US11607464B2, “Compositions and methods for the treatment and imaging of cancer” (BOARD OF REGENTS OF THE UNIVERSITY OF NEBRASKA, priority 2018, dated 2023).

Each structure is given as a SMILES string.

In one series the test system is NCI 60 cancer cells. Description: NCI 60 cell five-dose screen. As to conditions: NCI 60 cell five-dose screen, FIG. 5. In kind it is cell-based, human. The source says: FIG. 5 provides the concentrations (nanomole/liter) required to inhibit by 50% growth of cancer cells (GI50) as measured with the National Cancer Institute (NCI) 60 cell five-dose screen assay.
The methodology and data analyses are described in detail at: dtp.cancer.gov/discovery_development/nci-60/methodology.

Series [1] can be described thus: Stability in human serum (HPLC). It counts as in vitro ADME. Here is the method: 4 (370 KBq-740 kBq) in 20 μL 25% EtOH/PB (10 mM PB, pH 6.1) was added to the solution of human serum (1980 μL). The mixture was briefly vortexed and kept up to 19 hours at ambient temperature or in the cell culture incubator (37° C., 5% CO2). At selected times, a 0.5-mL aliquot of the incubated mixture was withdrawn and analyzed by HPLC.
An aliquot of the incubation mixture (0.5 mL) was treated with MeCN (0.5 mL) to precipitate proteins, vortexed and centrifuged (2,000 rpm, 15 minutes). Aliquots of the supernatant (500 μL) were acidified to pH˜6 with 0.05 M TFA (2-8 μL). The excess of MeCN was evaporated with a stream of nitrogen and 100 μL water added. This mixture was passed through a 0.2-μm filter and samples (˜100 μL, 62.5 kBq-130 kBq) were injected on HPLC system.
The HPLC analyses proceeded on Luna C N (5μ, 4.6×250 mm) column. Eluent: solvent A potassium phosphate buffer (10 mM, pH 6.1), solvent B EtOH; all samples were eluted at 0.8 mL/minute, initially with a gradient of EtOH from 30% to 70% for 30 minutes, then from 70% to 95% over the next 15 minutes with detection of radioactivity and UV at 280 nm.

Series [2] deals with SK-N-SH neuroblastoma, BE(2)-C neuroblastoma, and U-87 MG glioblastoma. Description: Survival of neuroblastoma and glioblastoma cells treated with ^131I-4. It counts as cell-based, human. The note with it: 0.185 MBq/mL and 0.35 MBq/mL, FIGS. 9A-9C. Here is the method: FIGS. 9A-9C provide images of SK-N-SH neuroblastoma (FIG. 9A), BE(2)-C neuroblastoma (FIG. 9B), and U-87 MG glioblastoma (FIG. 9C) untreated or treated with compound ^131I-4 at 0.185 MBq/mL and 0.35 MBq/mL. Graphs of the cell uptake and clonogenic survival of the cells are also provided.
The survival of human neuroblastoma and glioblastoma cells either left untreated or treated with compound ^131I-4 at 0.185 MBq/mL and 0.35 MBq/mL was determined. The cell uptake and clonogenic survival of SK-N-SH neuroblastoma, BE(2)-C neuroblastoma, and U-87 MG glioblastoma was also determined (FIGS. 9A-9C).

A short description of series [3]: Hematocrit and hemoglobin in treated mice. It counts as in vivo, athymic Ncr nu/nu mice. The note with it: terminal necropsy after therapy. Here is the method:
(§1) U-87MG cells were injected subcutaneously (SQ) in the dorsal area of the female and male 8-weeks old athymic Ncr nu/nu mice (n=10 per group). When tumor volume reached ˜150 mm^3 mice were randomized into treatment group and “sham” injected control group. The average tumor volumes on day 0 were 177±55 mm^3 and 141±25 mm^3 in the treatment group and untreated controls, respectively. Therapy mice received ^131I-4 at an average dose of 14.5±2.3 MBq/mouse. Tumor volumes and body weights were measured three times per week. When one tumor in control mice exceeded the volume of 3000 mm^3 (i.e., 10% of the body weight), the experiment was terminated. Necropsy was performed. Tumor weights and tumor-associated radioactivity were determined. Blood was collected and hemoglobin and hematocrit values were measured. Tumors sections were also analyzed by macroautoradiography.
The average and median weights of tumor extirpated from untreated control mice (NT) and ^131I-4 treated mice at the terminal necropsy after the therapy was also determined (FIG. 10A). Hematocrit and hemoglobin values in ^131I-4-treated and control (NT) mice were also determined (FIGS. 10B and 10C). FIGS. 10D and 10E also show macroautoradiography of sections of two tumors extirpated.

The test system of a further series is SK-N-SH cells. In words: Colony-forming assay, radiotoxicity of ^131I-radiolabeled drug. It counts as cell-based, human. As to conditions: for surviving fraction: 0.35 MBq/mL. Here is the method: (§2) The cell uptake was tested as a function of the radioactive concentration and time of exposure. With each treatment group, triplicate flasks of controls cells in medium without the radioactive drug were grown and harvested alongside treated cells. Aliquots of the radioactive medium were reserved for gamma counting to assess the initial radioactive concentration. Each treatment was tested in triplicate in at least two independent experiments. Groups of treated cells were cultured in radioactive medium for 1 hour, 24 hours, 48 hours, and 72 hours and either harvested at these times or the radioactive medium was removed and replaced with the appropriate nonradioactive medium and then flasks were returned to the incubator for additional 24 hours. Radioactive medium was collected for radioactivity determination, monolayers were washed with ice-cold PBS. Cells used in the subcellular distribution experiments were harvested by scarping and cell numbers were determined. The subcellular distribution of radioactivity was determined as described before using NE-PER™ nuclear and cytoplasmic extraction reagents (Pierce Biotechnology, Rockford, Ill.).
(§3) Alongside all treatment groups, which included: drug alone (n=4), 4 Gy XRT alone (n=4), and drug+XRT (n=4), quadruplicate flasks of controls cells in medium containing DMSO were grown and harvested under identical culture conditions. Each treatment was tested in at least two independent experiments. The final concentration of DMSO was maintained at 0.5% in all flasks including controls. Cells grown in monolayers (50%-60% confluent) were irradiated at the dose of 4 Gy delivered at the dose rate of 1.36 Gy/minute in a Mark I 68A irradiator (J. L. Shepherd & Associates, San Fernando, Calif.). At designated times after treatment, cells were harvested, their numbers determined and plated at 200 and 500 live cells in duplicate or quadruplicate T25 flasks per each treatment. Cells were left undisturbed for ˜7 days after which time fresh medium was added and colonies were allowed to grow for up to 3 weeks. Colonies were washed with PBS, fixed with methanol, and stained with crystal violet. Briefly, colonies were washed with 5 mL ice-cold PBS, followed by 5 mL PBS/methanol (1:1; v/v), and fixed in 5 mL methanol for 10 minutes. Methanol was removed and flasks were left open to dry for a few hours. Crystal violet (3 mL; 0.25% in 1:1 PBS/methanol) was added to each flask to stain cells. After approximately 10 minutes, the dye was removed, flasks were rinsed with tap water followed by distilled water and were left to dry. Colonies were counted by two independent observers using the ImageJ software.

In the next series the test system is BE(2)-C cells. Described as above. It counts as cell-based, human. As to conditions: for surviving fraction: BE(2)-C. Here is the method: as §2, §3
The subject of the next series is U-87 MG xenograft. Description: U-87 MG xenograft therapy study in athymic mice. In kind it is in vivo, athymic Ncr nu/nu mice. Here is the method: as §1
U-87MG cells were injected subcutaneously (SQ) in the dorsal area of the female and male 8-weeks old athymic Ncr nu/nu mice (n=10 per group). Therapy mice received ^131I-4 at an average dose of 14.5±2.3 MBq/mouse and tumor volumes and body weights were measured three times per week.

For another series, the system named is BE(2)-C. In words: Extracellular and intracellular D10 of cells exposed to ^131I-4. It counts as cell-based, human. As to conditions: exposed for 48 hours. Here is the method: as §2
(§4) The cell uptake of ^131I-4 was tested as a function of the radioactive concentration and time of exposure. Groups of treated cells—BE(2)-C (neuroblastoma), SK-N-SH cells (neuroblastoma), and U-87 MG (glioblastoma)—were cultured in radioactive medium for 1 hour, 24 hours, 48 hours, and 72 hours.

The subject of the next series is SK-N-SH. Described as above. In kind it is cell-based, human. As to conditions: exposed for 48 hours. Here is the method:
as §2, §4

Another series relates to U-87MG. Described as above. It counts as cell-based, human. The note with it: exposed for 48 hours. Here is the method: as §2, §4

With `COC(=O)Nc1nc2ccc(C(=O)c3ccccc3)cc2[nH]1` [Compound 1, methyl N-(6-benzoyl-1H-benzimidazol-2-yl)carbamate], in the series on NCI 60 cancer cells, the “GI50, concentration to inhibit growth of cancer cells by 50%” value was “nanomolar levels”.
Turning to `COC(=O)Nc1nc2cc(C(=O)c3cccc([131I])c3)ccc2[nH]1` [^125I-4, Methyl N-[5-(3′-[^125/131I]iodobenzoyl)-1H-benzimidazol-2-yl]carbamate], the “stability in human serum, radioactive HPLC trace” value in series [1] (5 hours, 20° C.) is given as “exclusively non-degraded”; in series [1] (17 hours, 37° C.) it was “exclusively non-degraded”. Also, the “stability in human serum” value in series [1] (up to 19 hours) is listed as “stable”.
`COC(=O)Nc1nc2cc(C(=O)c3cccc([131I])c3)ccc2[nH]1` [^131I-4, Methyl N-[5-(3′-[^125/131I]iodobenzoyl)-1H-benzimidazol-2-yl]carbamate]: the “cytotoxicity, cell survival” value in [2] is “cytotoxic to neuroblastoma and glioblastoma cells”. The “adverse reactions in the blood (hematocrit, hemoglobin)” value in [3] is recorded as “adverse reactions in the blood were not observed”. In addition, the surviving fraction in the series with SK-N-SH cells (24 hours) came out at 0.68±0.069; in the series with SK-N-SH cells (48 hours), 0.08±0.04; in the series with BE(2)-C cells (24 hour exposure to 0.35 MBq), 0.51±0.067; in the series on BE(2)-C cells (48 hour exposure to 0.35 MBq), 0.06±0.02; in the series with BE(2)-C cells (72 hour exposure to 0.29 MBq) it was 0.010±0.004. Also, in the series with SK-N-SH cells (72 hour exposure), the colonies entry is “no colonies”. Besides, the survivors result in the series on BE(2)-C cells (at higher concentrations) is “no survivors”. Also, the “tumor growth compared to untreated control mice” value in the series on U-87 MG xenograft (14.5±2.3 MBq/mouse) was “dramatically decreases tumor growth”. Besides, the xenograft volume median with U-87 MG xenograft (day 0 after treatment) was 122 mm^3; in the series with U-87 MG xenograft (day 4 after treatment) it was 169 mm^3; with U-87 MG xenograft (day 7 after treatment) it was 281 mm^3; in the series with U-87 MG xenograft (day 9 after treatment) it was 292 mm^3; in the series on U-87 MG xenograft (day 11 after treatment), 320 mm^3. Also, the “xenograft volume avg (std err)” value is 177 (55) mm^3 in the series on U-87 MG xenograft (day 0 after treatment, 14.5±2.3 MBq/mouse); 251 (88) mm^3 in the series with U-87 MG xenograft (day 4 after treatment, 14.5±2.3 MBq/mouse); 277 (76) mm^3 in the series on U-87 MG xenograft (day 7 after treatment, 14.5±2.3 MBq/mouse); 456 (165) mm^3 in the series with U-87 MG xenograft (day 9 after treatment, 14.5±2.3 MBq/mouse); 444 (163) mm^3 with U-87 MG xenograft (day 11 after treatment, 14.5±2.3 MBq/mouse). Moreover, the “tumor infiltration (macroautoradiography)” value with U-87 MG xenograft (sections of extirpated tumors) was “infiltrates tumors”. In addition, the values for the D10 extracellular in the series on BE(2)-C, with SK-N-SH and in the series with U-87MG were 0.176 MBq/mL, 0.410 MBq/mL and 0.740 MBq/mL, respectively. Moreover, the D10 intracellular in the series with BE(2)-C is 3,010 (395) decays/cell; with BE(2)-C (value (std err)) it was 0.36 (0.05) cpm/cell; with SK-N-SH, 7,620 (530) decays/cell; with SK-N-SH (value (std err)), 0.82 (0.09) cpm/cell; in the series with U-87MG, 14,760 (2,550) decays/cell; in the series on U-87MG (value (std err)), 1.73 (0.34) cpm/cell.
